Test results from ChEMBL document CHEMBL1201862, “PubChem BioAssay data set” (2004).
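In this assay, cells in 96-well plates receive the compound at five concentrations for 48 hours. Endpoints are linearly interpolated between the surrounding concentrations. At the GI50, growth is halved.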 Activity calls are given as the source filed them. No stated cut-off is given here; in the data, active = GI50 up to about 1.1 µM and inactive = higher. Square brackets hold non-standard residues; d marks the D form. Peptide text beside a SMILES is read from it. * marks the point of attachment. ξ: configuration not given here. ξD = NC(CC(=O)O)C(=O)O; Ac3c = NC1(C(=O)O)CC1; Boc = CC(C)(C)OC(=O)*; OtBu = CC(C)(C)O*

Experiments:
Assay in all cases: inhibition of tumour cell growth, NCI panel, 48 h
A498 = system: A498
DU-145 = system: DU-145
HOP-62 = system: HOP-62
Hs-578T = system: Hs-578T
MDA-MB-435 = system: MDA-MB-435
MOLT-4 = system: MOLT-4
Malme-3M = system: Malme-3M
NCI-H23 = system: NCI-H23
OVCAR-4 = system: OVCAR-4
SF-268 = system: SF-268
SF-539 = system: SF-539
SK-MEL-2 = system: SK-MEL-2
SK-OV-3 = system: SK-OV-3
SR = system: SR
T47D = system: T47D
TK-10 = system: TK-10
UACC-257 = system: UACC-257
UO-31 = system: UO-31
HL-60 = system: HL-60

Row | SMILES | GI50 (A498) | GI50 (DU-145) | GI50 (HOP-62) | GI50 (Hs-578T) | GI50 (MDA-MB-435) | GI50 (MOLT-4) | GI50 (Malme-3M) | GI50 (NCI-H23) | GI50 (OVCAR-4) | GI50 (SF-268) | GI50 (SF-539) | GI50 (SK-MEL-2) | GI50 (SK-OV-3) | GI50 (SR) | GI50 (T47D) | GI50 (TK-10) | GI50 (UACC-257) | GI50 (UO-31) | GI50 (HL-60)
1 | CCCSc1cc(Cl)c(C)cc1S(=O)(=O)n1ccnc1O | > 100 µM (inactive) | > 100 µM (inactive) | > 100 µM (inactive) | > 100 µM (inactive) | > 100 µM (inactive) | > 100 µM (inactive) | > 100 µM (inactive) | > 100 µM (inactive) | > 100 µM (inactive) | > 100 µM (inactive) | > 100 µM (inactive) | > 100 µM (inactive) | > 100 µM (inactive) | > 100 µM (inactive) | > 100 µM (inactive) | > 100 µM (inactive) | > 100 µM (inactive) | > 100 µM (inactive) | –
2 | NC1CCCCC1.O=P(O)(O)C(O)/C=C/c1ccccc1 (stereo not drawn) | > 100 µM (inactive) | > 100 µM (inactive) | > 100 µM (inactive) | > 100 µM (inactive) | > 100 µM (inactive) | > 100 µM (inactive) | > 100 µM (inactive) | > 100 µM (inactive) | > 100 µM (inactive) | > 100 µM (inactive) | – | > 100 µM (inactive) | > 100 µM (inactive) | – | > 100 µM (inactive) | > 100 µM (inactive) | > 100 µM (inactive) | > 100 µM (inactive) | > 100 µM (inactive)
3 | CCCCCCCCCCCCCCCCCCNc1ccn(C2OC(COP(=O)(O)OCC3OC(n4cc(C)c(=O)[nH]c4=O)CC3N=[N+]=[N-])C(O)C2O)c(=O)n1 (stereo not drawn) | – | 95.5 µM (inactive) | 23.2 µM (inactive) | 23 µM (inactive) | 23.8 µM (inactive) | 16.4 µM (inactive) | 16.9 µM (inactive) | 19.5 µM (inactive) | 25.7 µM (inactive) | 19.2 µM (inactive) | 17.8 µM (inactive) | 22.8 µM (inactive) | 18.9 µM (inactive) | 18.4 µM (inactive) | 34.8 µM (inactive) | 16.8 µM (inactive) | 25.4 µM (inactive) | 21 µM (inactive) | –
4 | COC(=O)C1(NC(=O)C(CC(=O)OC(C)(C)C)NC(=O)OC(C)(C)C)CC1 (stereo not drawn) (Boc-[ξD](OtBu)-[Ac3c]-OMe) | > 100 µM (inactive) | > 100 µM (inactive) | > 100 µM (inactive) | > 100 µM (inactive) | > 100 µM (inactive) | > 100 µM (inactive) | > 100 µM (inactive) | > 100 µM (inactive) | > 100 µM (inactive) | > 100 µM (inactive) | > 100 µM (inactive) | > 100 µM (inactive) | 7.87 µM (inactive) | – | > 100 µM (inactive) | > 100 µM (inactive) | > 100 µM (inactive) | > 100 µM (inactive) | –
5 | CC(=O)CC1=C(OC(C)C)C2(OCCO2)C1O (stereo not drawn) | > 100 µM (inactive) | > 100 µM (inactive) | > 100 µM (inactive) | > 100 µM (inactive) | > 100 µM (inactive) | > 100 µM (inactive) | > 100 µM (inactive) | > 100 µM (inactive) | > 100 µM (inactive) | > 100 µM (inactive) | > 100 µM (inactive) | > 100 µM (inactive) | > 100 µM (inactive) | – | > 100 µM (inactive) | > 100 µM (inactive) | > 100 µM (inactive) | > 100 µM (inactive) | > 100 µM (inactive)
6 | CC(=O)N1N=C(c2ccc3ccccc3c2O)CC1c1ccc(Cl)cc1Cl (stereo not drawn) | 27.9 µM (inactive) | > 100 µM (inactive) | 31.9 µM (inactive) | 39.1 µM (inactive) | 25.4 µM (inactive) | 7.67 µM (inactive) | > 100 µM (inactive) | > 100 µM (inactive) | 33.1 µM (inactive) | 26.9 µM (inactive) | 18.1 µM (inactive) | > 100 µM (inactive) | > 100 µM (inactive) | 5.21 µM (inactive) | 26.9 µM (inactive) | 52.7 µM (inactive) | 44.2 µM (inactive) | > 100 µM (inactive) | –
7 | CCc1n[nH]c(=O)n1-n1c(C)ccc1C | > 100 µM (inactive) | > 100 µM (inactive) | > 100 µM (inactive) | > 100 µM (inactive) | > 100 µM (inactive) | > 100 µM (inactive) | > 100 µM (inactive) | – | > 100 µM (inactive) | > 100 µM (inactive) | – | > 100 µM (inactive) | > 100 µM (inactive) | > 100 µM (inactive) | > 100 µM (inactive) | > 100 µM (inactive) | > 100 µM (inactive) | > 100 µM (inactive) | –
8 | O=C(c1ccco1)C1CC(c2ccc3ccccc3c2O)=NN1c1ccc([N+](=O)[O-])cc1[N+](=O)[O-] (stereo not drawn) | 23.7 µM (inactive) | 37.6 µM (inactive) | 33.3 µM (inactive) | 15.7 µM (inactive) | 28.9 µM (inactive) | 1.71 µM (inactive) | 37 µM (inactive) | 22.7 µM (inactive) | 15.6 µM (inactive) | 19.4 µM (inactive) | 28 µM (inactive) | 24.5 µM (inactive) | 28.1 µM (inactive) | 1.01 µM (active) | 31.9 µM (inactive) | 30 µM (inactive) | 28.6 µM (inactive) | 16.6 µM (inactive) | –
9 | NC(=O)NNCc1ccccc1 | > 100 µM (inactive) | > 100 µM (inactive) | > 100 µM (inactive) | > 100 µM (inactive) | > 100 µM (inactive) | > 100 µM (inactive) | – | > 100 µM (inactive) | > 100 µM (inactive) | > 100 µM (inactive) | > 100 µM (inactive) | > 100 µM (inactive) | > 100 µM (inactive) | – | > 100 µM (inactive) | > 100 µM (inactive) | > 100 µM (inactive) | > 100 µM (inactive) | > 100 µM (inactive)
10 | COc1cc(CCC(=O)O)c2cc3ccccc3cc2c1O | 33.6 µM (inactive) | – | 17.6 µM (inactive) | 39.6 µM (inactive) | 15.3 µM (inactive) | 8.89 µM (inactive) | 18.4 µM (inactive) | 19.1 µM (inactive) | 15.6 µM (inactive) | 19.6 µM (inactive) | – | 18.3 µM (inactive) | 67.1 µM (inactive) | 15.6 µM (inactive) | 14.6 µM (inactive) | 33.3 µM (inactive) | 16.1 µM (inactive) | 17.8 µM (inactive) | 16.5 µM (inactive)
11 | Cn1c2ccccc2c2c3c(c4c5ccccc5n(C5OC(CO)C(O)C(O)C5O)c4c21)C(=O)OC3=O (stereo not drawn) | > 100 µM (inactive) | > 100 µM (inactive) | > 100 µM (inactive) | > 100 µM (inactive) | > 100 µM (inactive) | > 100 µM (inactive) | > 100 µM (inactive) | > 100 µM (inactive) | > 100 µM (inactive) | > 100 µM (inactive) | > 100 µM (inactive) | > 100 µM (inactive) | > 100 µM (inactive) | > 100 µM (inactive) | 52.2 µM (inactive) | > 100 µM (inactive) | > 100 µM (inactive) | > 100 µM (inactive) | –
12 | CC[C@H](NC(=O)OC(C)(C)C)C(=O)NCP(=O)(OCc1ccc([N+](=O)[O-])cc1)OCc1ccc([N+](=O)[O-])cc1 | – | 31.6 µM (inactive) | 38.4 µM (inactive) | 37.2 µM (inactive) | 34.9 µM (inactive) | 21.5 µM (inactive) | 53.5 µM (inactive) | 41.3 µM (inactive) | 25.1 µM (inactive) | 40.6 µM (inactive) | 31.8 µM (inactive) | 50.9 µM (inactive) | 21.9 µM (inactive) | 26.9 µM (inactive) | 63 µM (inactive) | 30.6 µM (inactive) | 11.9 µM (inactive) | 14.8 µM (inactive) | 18.2 µM (inactive)
13 | C=C(C)CC1(O)C(=O)C(OCC)=C1OCC (stereo not drawn) | > 100 µM (inactive) | > 100 µM (inactive) | > 100 µM (inactive) | > 100 µM (inactive) | > 100 µM (inactive) | > 100 µM (inactive) | 48.1 µM (inactive) | > 100 µM (inactive) | > 100 µM (inactive) | > 100 µM (inactive) | > 100 µM (inactive) | > 100 µM (inactive) | > 100 µM (inactive) | – | > 100 µM (inactive) | > 100 µM (inactive) | > 100 µM (inactive) | > 100 µM (inactive) | > 100 µM (inactive)
14 | O=C(CSc1nccc(=O)[nH]1)c1ccccc1 | – | > 100 µM (inactive) | 63.1 µM (inactive) | 16.1 µM (inactive) | 62.2 µM (inactive) | > 100 µM (inactive) | 82.4 µM (inactive) | > 100 µM (inactive) | > 100 µM (inactive) | > 100 µM (inactive) | 39.8 µM (inactive) | > 100 µM (inactive) | > 100 µM (inactive) | > 100 µM (inactive) | > 100 µM (inactive) | > 100 µM (inactive) | > 100 µM (inactive) | > 100 µM (inactive) | > 100 µM (inactive)
15 | Cc1ccc(S(=O)(=O)n2cncc2CO)cc1 | – | > 100 µM (inactive) | > 100 µM (inactive) | > 100 µM (inactive) | > 100 µM (inactive) | > 100 µM (inactive) | > 100 µM (inactive) | > 100 µM (inactive) | > 100 µM (inactive) | > 100 µM (inactive) | > 100 µM (inactive) | > 100 µM (inactive) | > 100 µM (inactive) | > 100 µM (inactive) | > 100 µM (inactive) | > 100 µM (inactive) | > 100 µM (inactive) | > 100 µM (inactive) | > 100 µM (inactive)
